Assay results from US8173131B2, “Compositions and methods for modulating RSV infection and immunity” (PerkinElmer Health Sciences, Inc., priority 2000, dated 2012).
Marks after values point to notes of the source that are not given here.

Tests used:
[1] = test system: murine spleen leukocyte cell migration; assay: Murine leukocyte chemotaxis in modified Boyden chamber; type: cell-based, mouse
Procedure: The chemotactic index was determined from the fold increase of murine spleen leukocyte cell migration toward the chemoattractant (e.g., Fkn or G glycoprotein) over the leukocyte migration toward media alone control, using modified Boyden chambers. Fkn, G glycoprotein, recombinant polyhistidine-tagged G glycoprotein (GHIS), anti-CX3CR1 monoclonal antibody (2A9-1), normal rabbit serum, rabbit anti-CX3CR1 serum, anti-G glycoprotein monoclonal antibody (131-2G) or anti-F glycoprotein monoclonal antibody (131-2A) were added to the upper chamber to examine antagonism of cell migration toward the chemoattractant in the lower chamber.
Leukocyte chemotaxis toward Fkn, G glycoprotein or media was measured according to Boyden^46 using 24 well plates (Costar, Cambridge, Mass.) with 3 μm filter inserts (Nalge Nunc, Rochester, N.Y.) coated with an extracellular matrix consisting primarily of laminin, collagen IV and proteoglycan (ECM, Sigma, St. Louis, Mo.). For murine studies, 5×10^5 naïve spleen cells was placed in the upper chamber and 10 nM mouse Fkn or 10 nM G glycoprotein, anti-CX3CR1 antibody, anti-G or anti-F glycoprotein monoclonal antibody, normal rabbit sera, rabbit anti-CCR5 sera or media was placed in the upper or lower chamber as appropriate. For human studies, 10^6 density gradient purified (Lymphocyte Separation Media, ICN Biomedicals, Aurora, Ohio, per manufacture instructions) peripheral blood mononuclear cells (PBMC) from normal human adult donors was placed in the upper chamber in the presence or absence of 1 μM peptide RT33, and 10 nM human Fkn, 10 nM G glycoprotein or 1 μM peptide RT33 placed in the lower chambers. The modified Boyden chamber was incubated at 37° C. for 4-6 h, the inserts removed, washed in PBS (GIBCO BRL), fixed in 3% gluteraldehyde and stained in formalin-buffered 0.01% crystal violet. Chemotactic cells were visualized with a microscope. Chemotactic cells were analyzed for CX3CR1 expression by collecting cells from the upper or lower modified Boyden chambers, antibody staining (2A9-1) and flow cytometry as described. Leucocytes chemotactic toward G or Fkn expressed a higher percent of CX3CR1 in the lower (25-30%) versus upper chamber (7-11%).

[2] = test system: CD3+ BAL cells; assay: Intracellular cytokine expression by CD3+ T cells following in vivo peptide treatment; parameters: species or system BALB/c mice
Procedure: On day −1, prior to RSV infection, mice were i.p. treated (0.1 ml/mouse) with 100 μM of G glycoprotein peptides RT33 (CWAIC) (SEQ ID NO: 12), RT34 (lacks the CX3C motif) or peptides with changes in the CX3C motif (Δ+1, Δ−1, EYp1). Control mice were treated with PBS containing a similar dilution of DMSO used to solubilize the peptides.
Intracellular cytokine staining was modified for microculture staining as described (55, 57). Briefly, BAL cells were incubated in PBS containing Golgi Stop (Pharmingen) for 3 h at 37° C. to allow for accumulation of intracellular cytokines. The cells were washed in PBS containing 1% bovine serum albumin, blocked with 10% normal mouse sera diluted in PBS containing 1% bovine serum albumin, and stained (4° C., 30 min) with an appropriate dilution of anti-CD3 antibody, fixed and permeabilized in Cytofix/Cytoperm (Pharmingen). The cells were washed in Cytofix/Cytoperm buffer and stained (4° C., 30 min) with appropriate dilutions of anti-IL-2 (JES6-5H4), anti-IL-4 (BVD4-1D11), anti-IL-5 (TRFK5), IL-10 (JES3-16E3), anti-IFNγ (XMG1.2), or anti-TNFα (MP6-XT22) antibodies (Pharmingen) diluted in Cytofix/Cytoperm. Extra- and intracellular staining was analyzed by flow cytometry using a FACScan and Cell Quest software (Becton Dickinson, San Diego, Calif.). Total cytokine expression by CD3+ T cells was determined from the percent cytokine expression of CD3+ T cells and total number of cells recovered. The total number of CD3+ BAL cells expressing a particular cytokine was determined by multiplying the total number of BAL cells by the percent CD3+ cells expressing that particular cytokine.

[3] = day 3 pi, peptide 24 hours prior to RSV infection

Substance	Total IC cytokine Expressing CD3^+ BAL cells (×10^3) ± SEM: IFNγ ([2]; day 3 pi)	Total IC cytokine Expressing CD3^+ BAL cells (×10^3) ± SEM: IL-4 ([2]; day 3 pi)	Total IC cytokine Expressing CD3^+ BAL cells (×10^3) ± SEM: IL-5 ([2]; day 3 pi)	Total IC cytokine Expressing CD3^+ BAL cells (×10^3) ± SEM: IL-6 ([2]; day 3 pi)	Total IC cytokine Expressing CD3^+ BAL cells (×10^3) ± SEM: TNFα ([2]; day 3 pi)	Total IC cytokine Expressing CD3^+ BAL cells (×10^3) ± SEM: IL-2 [2, 3]	Total IC cytokine Expressing CD3^+ BAL cells (×10^3) ± SEM: IFNγ ([2]; day 5 pi)	Total IC cytokine Expressing CD3^+ BAL cells (×10^3) ± SEM: IL-2 ([2]; day 5 pi)	Total IC cytokine Expressing CD3^+ BAL cells (×10^3) ± SEM: IL-4 ([2]; day 5 pi)	Total IC cytokine Expressing CD3^+ BAL cells (×10^3) ± SEM: IL-5 ([2]; day 5 pi)	Total IC cytokine Expressing CD3^+ BAL cells (×10^3) ± SEM: IL-6 ([2]; day 5 pi)	Total IC cytokine Expressing CD3^+ BAL cells (×10^3) ± SEM: TNFα ([2]; day 5 pi)	Total IC cytokine Expressing CD3^+ BAL cells (×10^3) ± SEM: IFNγ ([2]; day 7 pi)	Total IC cytokine Expressing CD3^+ BAL cells (×10^3) ± SEM: IL-2 ([2]; day 7 pi)	Total IC cytokine Expressing CD3^+ BAL cells (×10^3) ± SEM: IL-4 ([2]; day 7 pi)	Total IC cytokine Expressing CD3^+ BAL cells (×10^3) ± SEM: IL-5 ([2]; day 7 pi)	Total IC cytokine Expressing CD3^+ BAL cells (×10^3) ± SEM: IL-6 ([2]; day 7 pi)	Total IC cytokine Expressing CD3^+ BAL cells (×10^3) ± SEM: TNFα ([2]; day 7 pi)	Total IC cytokine Expressing CD3^+ BAL cells (×10^3) ± SEM: IFNγ ([2]; day 14 pi)	Total IC cytokine Expressing CD3^+ BAL cells (×10^3) ± SEM: IL-2 ([2]; day 14 pi)	other results
Fkn: CX3C chemokine fractalkine (R&D), ligand of CX3CR1 [reference compound]																					chemotactic index toward G glycoprotein ([1]; substance added to upper chamber as antagonist): 1.2; inhibition of leukocyte chemotaxis toward G glycoprotein ([1]; substance in upper chamber): approximately 75%
NKKPGKKTTTKP [RT34]	43 ± 9.4 ×10^3	43 ± 9.2 ×10^3	28 ± 8.0 ×10^3	47 ± 10 ×10^3	57 ± 12 ×10^3	40 ± 8.5 ×10^3	18 ± 2.6 ×10^3	19 ± 2.8 ×10^3	15 ± 2.2 ×10^3	24 ± 3.5 ×10^3	30 ± 4.4 ×10^3	27 ± 3.9 ×10^3	10 ± 3.5 ×10^3	7.7 ± 2.6 ×10^3	11 ± 3.6 ×10^3	8.7 ± 2.9 ×10^3	8.9 ± 3.0 ×10^3	31 ± 5.0 ×10^3	9.7 ± 1.5 ×10^3	5.4 ± 1.9 ×10^3	Total IC cytokine Expressing CD3^+ BAL cells (×10^3) ± SEM: IL-4 ([2]; day 14 pi): 8.2 ± 1.3 ×10^3; Total IC cytokine Expressing CD3^+ BAL cells (×10^3) ± SEM: IL-5 ([2]; day 14 pi): 10 ± 1.7 ×10^3; Total IC cytokine Expressing CD3^+ BAL cells (×10^3) ± SEM: IL-6 ([2]; day 14 pi): 11 ± 1.7 ×10^3; Total IC cytokine Expressing CD3^+ BAL cells (×10^3) ± SEM: TNFα ([2]; day 14 pi): 10 ± 1.6 ×10^3
TCWACKRIPNK (TCWAIACKRIPNK) [Δ − 1]	47 ± 15 ×10^3	47 ± 15 ×10^3	49 ± 16 ×10^3	51 ± 17 ×10^3	55 ± 17 ×10^3	46 ± 15 ×10^3	10 ± 1.6 ×10^3	11 ± 1.7 ×10^3	13 ± 1.9 ×10^3	15 ± 2.2 ×10^3	13 ± 2.0 ×10^3	18 ± 2.7 ×10^3	4.7 ± 0.7 ×10^3	3.5 ± 0.5 ×10^3	2.8 ± 0.4 ×10^3	4.2 ± 0.6 ×10^3	6.3 ± 1.0 ×10^3	12 ± 0.7 ×10^3	10 ± 1.2 ×10^3	8.7 ± 1.0 ×10^3	Total IC cytokine Expressing CD3^+ BAL cells (×10^3) ± SEM: IL-4 ([2]; day 14 pi): 12 ± 1.4 ×10^3; Total IC cytokine Expressing CD3^+ BAL cells (×10^3) ± SEM: IL-5 ([2]; day 14 pi): 14 ± 1.7 ×10^3; Total IC cytokine Expressing CD3^+ BAL cells (×10^3) ± SEM: IL-6 ([2]; day 14 pi): 13 ± 1.6 ×10^3; Total IC cytokine Expressing CD3^+ BAL cells (×10^3) ± SEM: TNFα ([2]; day 14 pi): 11 ± 1.4 ×10^3
TCWAIACKRIPNK [Δ + 1]	18 ± 2.2 ×10^3	18 ± 2.3 ×10^3	23 ± 2.9 ×10^3	21 ± 2.8 ×10^3	19 ± 2.5 ×10^3	15 ± 2.0 ×10^3	17 ± 5.3 ×10^3	16 ± 5.1 ×10^3	20 ± 6.2 ×10^3	23 ± 7.2 ×10^3	21 ± 6.5 ×10^3	21 ± 6.8 ×10^3	5.6 ± 1.6 ×10^3	7.5 ± 2.2 ×10^3	5.8 ± 1.7 ×10^3	9.9 ± 2.9 ×10^3	11 ± 3.3 ×10^3	15 ± 2.9 ×10^3	11 ± 3.5 ×10^3	10 ± 3.2 ×10^3	Total IC cytokine Expressing CD3^+ BAL cells (×10^3) ± SEM: IL-4 ([2]; day 14 pi): 14 ± 4.2 ×10^3; Total IC cytokine Expressing CD3^+ BAL cells (×10^3) ± SEM: IL-5 ([2]; day 14 pi): 16 ± 4.9 ×10^3; Total IC cytokine Expressing CD3^+ BAL cells (×10^3) ± SEM: IL-6 ([2]; day 14 pi): 12 ± 3.7 ×10^3; Total IC cytokine Expressing CD3^+ BAL cells (×10^3) ± SEM: TNFα ([2]; day 14 pi): 15 ± 4.7 ×10^3
TCWAICKRIPNK [RT33]	24 ± 5.6 ×10^3	24 ± 6.0 ×10^3	22 ± 5.6 ×10^3	27 ± 6.8 ×10^3	28 ± 7.0 ×10^3	26 ± 6.5^c ×10^3	8.0 ± 1.0 ×10^3	9.0 ± 1.1 ×10^3	11 ± 1.3 ×10^3	12 ± 1.5 ×10^3	9.0 ± 1.2 ×10^3	9.0 ± 1.1 ×10^3	3.6 ± 0.5 ×10^3	2.4 ± 0.3 ×10^3	2.3 ± 0.3 ×10^3	5.2 ± 0.7 ×10^3	5.8 ± 0.8 ×10^3	13 ± 0.8 ×10^3	6.5 ± 2.1 ×10^3	3.0 ± 1.0 ×10^3	Total IC cytokine Expressing CD3^+ BAL cells (×10^3) ± SEM: IL-4 ([2]; day 14 pi): 8.2 ± 2.7 ×10^3; Total IC cytokine Expressing CD3^+ BAL cells (×10^3) ± SEM: IL-5 ([2]; day 14 pi): 5.3 ± 1.7 ×10^3; Total IC cytokine Expressing CD3^+ BAL cells (×10^3) ± SEM: IL-6 ([2]; day 14 pi): 4.7 ± 1.5 ×10^3; Total IC cytokine Expressing CD3^+ BAL cells (×10^3) ± SEM: TNFα ([2]; day 14 pi): 8.7 ± 2.6 ×10^3
